Source: patent US10532082B2, “SOCS1-derived peptide for use in chronic complications of diabetes” (Fundació Hospital Universitari Vall d'Hebron-Institut de …, priority 2014, dated 2020)
Where no end group is shown, it is not given here.

Key:
STAT1 = STAT1 activation in cytokine-stimulated macrophages (Western blot); assay type: cell-based, murine; conditions: pre-incubation 50-150 ug/mL (Mut 150 ug/mL), IFNγ and IL-6 stimulation
Description: (§1) RAW264.7 macrophages and vascular smooth muscle cells (VSMC) cultured in a medium with 10% fetal bovine serum were used. The cells were synchronized (24 hours without serum), pre-incubated for 90 minutes with different peptide concentrations (miS1 or the control thereof, 50-150 μg/mL) and stimulated with cytokines (IFNγ […]). STAT activation was analyzed by means of Western blot for phosphorylated STAT1/STAT3 isoforms. JAK/STAT pathway-dependent chemokine (CCL2) expression was determined by means of ELISA. Cell viability was analyzed by MTT colorimetric assay and macrophage migration was analyzed by chemotaxis assay.

STAT3 = STAT3 activation in cytokine-stimulated macrophages (Western blot); assay type: cell-based, murine; conditions: pre-incubation 50-150 ug/mL (Mut 150 ug/mL), IFNγ and IL-6 stimulation
Description: as §1

Mut: non-functional mutated peptide, F substituted with A: SEQ ID NO 3 DTHARTARSHSDYRRI, bound to lysine-palmitate; control of the experiments (not fully specified (N-terminus)) [reference compound]
STAT1 activation (phosphorylation) (STAT1): did not cause any effect
STAT3 activation (phosphorylation) (STAT3): did not cause any effect
